For one assay, the target named is T1, human mGlu2 receptors (Homo sapiens, UniProt Q14416).
T1 construct: expressed in transfected cells; host or cells: AV12 cells, co-expressing rat EAAT1
Description: mGlu2 receptor cAMP antagonist assay. The following applies: reversal of DCG IV (EC90) inhibition of forskolin-stimulated cAMP; AV12 cells. The assay is classed as cell-based. The protocol:
(§1) mGlu2 and mGlu3 Receptor cAMP Antagonist Assays
Antagonist activity is assayed in recombinant AV12 cells stably expressing human mGlu2 or mGlu3 receptors and the rat glutamate transporter EAAT1 (Excitatory Amino Acid Transporter 1). The cell lines are maintained by culturing in DMEM with high glucose and pyridoxine hydrochloride supplemented with 5% dialyzed fetal bovine serum (FBS), 1 mM sodium pyruvate, 1 mM HEPES and 1 mM L-glutamine; geneticin and hygromycin B are used as selection antibiotics.
Reversal of the inhibition of forskolin-stimulated cAMP production by test compounds is measured using homogeneous time resolved fluorescence technology (HTRF; Cisbio cat #62AM4PEB). The medium is removed and the cells are incubated with 100 μl cAMP stimulation buffer (STIM) for 30 minutes at 37° C. […] Cells are incubated at 37° C. for 20 minutes. To measure the cAMP levels, cAMP-d2 conjugate and anti cAMP-cryptate conjugate in lysis buffer are incubated with the treated cells at room temperature for 1 hour (mGlu2) or 1.5 hour (mGlu3). […] The raw data are converted to cAMP amount (pmole/well) using a cAMP standard curve generated for each experiment. Relative IC50 values are calculated from the top-bottom range of the concentration response curve using a four-parameter logistic curve fitting program (ActivityBase v5.3.1.22).

The test system of another assay is male NIH-Swiss mice. Description: Forced-swim test in mice (mFST). Format: in vivo, mouse. The following applies: for ED60: Mus musculus, immobility in last 4 min of 6 min; for Maximal Decrease (1 − compound/control) * 100%: immobility time. From the text: Forced-Swim Test in Mice (mFST)
mFST is an established in vivo assay for antidepressant activity (Li et al. J Pharmacol Exp Ther. 319(1):254-9, 2006.). […] The mFST was used to evaluate potential antidepressant-like activity of novel mGlu2/3 antagonists essentially as described in previously published methods (see for example, Li et al. J Pharmacol Exp Ther. 319(1):254-9, 2006.). Briefly, male NIH-Swiss mice (Harlan Sprague-Dawley, Indianapolis, Ind.) weighing between 25-30 g are used. Group housed animals are removed from the vivarium to the testing area in their own cages and allowed to adapt to the new environment for at least 1 hour before testing. Compounds where R^1 and R^2 are both hydrogen are dissolved in water with minimal NaOH added for dissolution and are administered i.p. Compounds where R^1 and/or R^2 are other than hydrogen are prepared on the day of use in 2.0-2.5% N-methyl-pyrrolidinone and then suspended in 1% HEC, 0.25% Tween 80, and 0.05% Dow antifoam, and administered orally. Mice are placed in a cylinder (diameter: 10 cm; height: 25 cm) filled with 6 cm of water (22-25° C.) for 6 min. The duration of immobility during the last 4 min. of the 6 min. period of the test was scored. A mouse is recorded as immobile when floating motionless or making only those movements necessary to keep its head above water.

Another assay has as its target T2, human mGlu6 receptor (Homo sapiens, UniProt O15303).
T2 construct: expressed in transfected cells; host or cells: AV12 cells, co-expressing rat EAAT1
Description: mGlu6 cAMP antagonist assay (reference agonist L-AP4). Format: cell-based. The following applies: cAMP format. From the text: FLIPR and cAMP Assays for mGlu Receptor Selectivity
The relative antagonist potencies of the compounds of the invention for the other human mGlu receptors can be assessed with either a cAMP assay or fluorometric calcium response assay (see for example Fell et al., JPET (in press)). Briefly, individual AV12 cell lines containing the rat EAAT1 glutamate transporter and stably expressing the human mGlu1, 2, 3, 4, 5, 6, & 8 receptors are used for these studies. The mGlu1 and 5 receptors are […], so they naturally signal through phospholipase C, producing a calcium flux response which can be used to measure receptor activation using a Fluorometric Imaging Plate Reader (FLIPR, Molecular Devices). The cell lines expressing the mGlu2, 3, 4, and 8 receptor are designed to express the Gα15 subunit so that these Gi-coupled receptors will generate a calcium flux response similar to the mGlu1 and 5 receptor expressing cell lines. The mGlu6 receptor is tested in a cAMP format using methods analogous to those developed for mGlu2 and mGlu3 above. These cell lines are maintained as previously described except that amounts of L-glutamine and selection agents (geneticin, hygromycin B, zeocin, and blasticidin) may vary depending on the cell line. Confluent cultures are passaged biweekly.
Antagonist activity in mGlu6 cells is measured using cAMP in a method analogous to that described above for mGlu2 and mGlu3 activity, except that the reference agonist was L-AP4 (Tocris). […] Relative IC50 and EC50 values are calculated from the top-bottom range of the concentration response curve using a four-parameter logistic curve fitting program (ActivityBase v5.3.1.22).

The target of another assay is T3, human mGlu3 receptors (Homo sapiens, UniProt Q14832).
T3 construct: expressed in transfected cells; host or cells: AV12 cells, co-expressing rat EAAT1
T3 sequence (Q14832 23-879): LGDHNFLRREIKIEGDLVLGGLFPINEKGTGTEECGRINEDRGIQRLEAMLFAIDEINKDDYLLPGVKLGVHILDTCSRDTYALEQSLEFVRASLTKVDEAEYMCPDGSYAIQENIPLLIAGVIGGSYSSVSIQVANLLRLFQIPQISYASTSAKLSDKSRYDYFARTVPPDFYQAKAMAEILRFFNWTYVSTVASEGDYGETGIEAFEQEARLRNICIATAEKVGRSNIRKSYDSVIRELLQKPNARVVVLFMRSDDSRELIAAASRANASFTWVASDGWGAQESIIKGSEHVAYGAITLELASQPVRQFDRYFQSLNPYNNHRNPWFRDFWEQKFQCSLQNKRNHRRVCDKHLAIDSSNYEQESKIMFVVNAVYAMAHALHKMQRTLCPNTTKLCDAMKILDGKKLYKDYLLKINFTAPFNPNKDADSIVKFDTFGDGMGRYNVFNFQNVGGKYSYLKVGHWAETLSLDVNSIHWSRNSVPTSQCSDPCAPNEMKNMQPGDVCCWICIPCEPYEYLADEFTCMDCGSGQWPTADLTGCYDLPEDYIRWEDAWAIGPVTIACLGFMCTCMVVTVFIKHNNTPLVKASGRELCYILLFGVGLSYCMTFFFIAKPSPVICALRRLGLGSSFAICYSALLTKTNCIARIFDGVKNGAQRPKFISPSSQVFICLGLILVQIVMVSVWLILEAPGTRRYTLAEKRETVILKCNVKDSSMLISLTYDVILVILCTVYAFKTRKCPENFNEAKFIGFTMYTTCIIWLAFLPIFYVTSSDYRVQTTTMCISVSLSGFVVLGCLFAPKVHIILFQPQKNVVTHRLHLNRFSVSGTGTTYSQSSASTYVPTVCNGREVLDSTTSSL
Description: mGlu3 receptor cAMP antagonist assay. The assay is classed as cell-based. Particulars: reversal of DCG IV (EC90) inhibition of forskolin-stimulated cAMP; AV12 cells. The protocol:
as §1
Antagonist activity is assayed in recombinant AV12 cells stably expressing human mGlu2 or mGlu3 receptors and the rat glutamate transporter EAAT1 (Excitatory Amino Acid Transporter 1). The cell lines are maintained by culturing in DMEM with high glucose and pyridoxine hydrochloride supplemented with 5% dialyzed fetal bovine serum (FBS), 1 mM sodium pyruvate, 1 mM HEPES and 1 mM L-glutamine; geneticin and hygromycin B are used as selection antibiotics. Confluent cultures are grown at 37° C. in an atmosphere containing 6.5% CO2, and passaged biweekly. Cells are harvested using 0.25% trypsin, suspended in freeze media (FBS with 10% DMSO) at 10^7 cells/ml, and aliquots are stored in liquid nitrogen. Twenty-four hours before the assay, cells are plated at a density of 8,000-10,000 cells per well in a tissue culture treated, 96-well, half-area black plates (Costar 3875) in 50 μl of DMEM with high glucose and pyridoxine hydrochloride supplemented with 5% dialyzed FBS, 1 mM sodium pyruvate, 1 mM HEPES, 100 μg/ml ampicillin, and 250 μM (mGlu2) or 125 μM (mGlu3) of L-glutamine.
Reversal of the inhibition of forskolin-stimulated cAMP production by test compounds is measured using homogeneous time resolved fluorescence technology (HTRF; Cisbio cat #62AM4PEB). The medium is removed and the cells are incubated with 100 μl cAMP stimulation buffer (STIM) for 30 minutes at 37° C. (STIM buffer contains 500 ml HBSS, 1000 ml DPBS, 0.034% BSA, 1.67 mM HEPES and 500 μM IBMX (Sigma 15879).) Compounds are tested in 10-point concentration response curves using 3× serial dilution followed by further 40-fold dilution into STIM buffer. DCG IV (Tocris 0975) serves as the reference agonist. The final reaction mixture contains 1 μM (for mGlu2) or 3 μM (for mGlu3) of forskolin (Sigma F6886), DCG IV at its EC90, and up to 25 μM of test compound. Cells are incubated at 37° C. for 20 minutes. To measure the cAMP levels, cAMP-d2 conjugate and anti cAMP-cryptate conjugate in lysis buffer are incubated with the treated cells at room temperature for 1 hour (mGlu2) or 1.5 hour (mGlu3). The HTRF signal is detected using an EnVision plate reader (Perkin-Elmer) to calculate the ratio of fluorescence at […]. The raw data are converted to cAMP amount (pmole/well) using a cAMP standard curve generated for each experiment. Relative IC50 values are calculated from the top-bottom range of the concentration response curve using a four-parameter logistic curve fitting program (ActivityBase v5.3.1.22).

A further assay relates to mice. Description: mFST with SSRI (fluoxetine combination). Particulars: Example 10 17 mg/kg p.o., fluoxetine 10 mg/kg i.p., alone or combined. The assay is classed as in vivo, mouse. As for the experimental part:
mFST is an established in vivo assay for antidepressant activity (Li et al. J Pharmacol Exp Ther. 319(1):254-9, 2006.). […] J Pharmacol Exp Ther. 319(1):254-9, 2006.). Briefly, male NIH-Swiss mice (Harlan Sprague-Dawley, Indianapolis, Ind.) weighing between 25-30 g are used. Group housed animals are removed from the vivarium to the testing area in their own cages and allowed to adapt to the new environment for at least 1 hour before testing. Compounds where R^1 and R^2 are both hydrogen are dissolved in water with minimal NaOH added for dissolution and are administered i.p. […] Mice are placed in a cylinder (diameter: 10 cm; height: 25 cm) filled with 6 cm of water (22-25° C.) for 6 min. The duration of immobility during the last 4 min. of the 6 min. period of the test was scored. A mouse is recorded as immobile when floating motionless or making only those movements necessary to keep its head above water. The compounds of the invention may also be tested in combination with other compounds useful for the treatment of depressive disorders, as for example SSRI's, for their ability to enhance the antidepressant-like effects over that of either compound alone.

Bounds are passed on as bounds.

T1 sequence (Q14416 19-872): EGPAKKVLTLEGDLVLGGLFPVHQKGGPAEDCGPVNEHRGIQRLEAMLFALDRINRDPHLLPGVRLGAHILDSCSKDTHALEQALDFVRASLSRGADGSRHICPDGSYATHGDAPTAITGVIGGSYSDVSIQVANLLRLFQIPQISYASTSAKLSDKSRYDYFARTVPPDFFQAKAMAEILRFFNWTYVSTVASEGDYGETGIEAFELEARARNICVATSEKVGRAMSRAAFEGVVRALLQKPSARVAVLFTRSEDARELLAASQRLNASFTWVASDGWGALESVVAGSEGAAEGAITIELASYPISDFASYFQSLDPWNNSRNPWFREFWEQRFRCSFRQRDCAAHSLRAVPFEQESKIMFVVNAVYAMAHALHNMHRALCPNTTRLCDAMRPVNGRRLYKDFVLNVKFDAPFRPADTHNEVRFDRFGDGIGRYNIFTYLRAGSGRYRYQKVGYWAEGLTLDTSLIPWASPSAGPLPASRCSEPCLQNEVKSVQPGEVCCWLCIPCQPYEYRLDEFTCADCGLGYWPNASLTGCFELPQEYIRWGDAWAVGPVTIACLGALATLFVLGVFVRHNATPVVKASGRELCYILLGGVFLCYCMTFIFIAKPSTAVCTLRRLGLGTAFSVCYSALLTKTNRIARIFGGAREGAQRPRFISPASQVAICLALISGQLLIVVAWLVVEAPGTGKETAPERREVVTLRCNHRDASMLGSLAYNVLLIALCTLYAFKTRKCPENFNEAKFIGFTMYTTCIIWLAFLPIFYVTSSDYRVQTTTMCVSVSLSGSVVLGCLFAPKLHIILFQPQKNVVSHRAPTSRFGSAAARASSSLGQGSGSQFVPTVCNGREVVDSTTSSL
T2 sequence (O15303 25-877): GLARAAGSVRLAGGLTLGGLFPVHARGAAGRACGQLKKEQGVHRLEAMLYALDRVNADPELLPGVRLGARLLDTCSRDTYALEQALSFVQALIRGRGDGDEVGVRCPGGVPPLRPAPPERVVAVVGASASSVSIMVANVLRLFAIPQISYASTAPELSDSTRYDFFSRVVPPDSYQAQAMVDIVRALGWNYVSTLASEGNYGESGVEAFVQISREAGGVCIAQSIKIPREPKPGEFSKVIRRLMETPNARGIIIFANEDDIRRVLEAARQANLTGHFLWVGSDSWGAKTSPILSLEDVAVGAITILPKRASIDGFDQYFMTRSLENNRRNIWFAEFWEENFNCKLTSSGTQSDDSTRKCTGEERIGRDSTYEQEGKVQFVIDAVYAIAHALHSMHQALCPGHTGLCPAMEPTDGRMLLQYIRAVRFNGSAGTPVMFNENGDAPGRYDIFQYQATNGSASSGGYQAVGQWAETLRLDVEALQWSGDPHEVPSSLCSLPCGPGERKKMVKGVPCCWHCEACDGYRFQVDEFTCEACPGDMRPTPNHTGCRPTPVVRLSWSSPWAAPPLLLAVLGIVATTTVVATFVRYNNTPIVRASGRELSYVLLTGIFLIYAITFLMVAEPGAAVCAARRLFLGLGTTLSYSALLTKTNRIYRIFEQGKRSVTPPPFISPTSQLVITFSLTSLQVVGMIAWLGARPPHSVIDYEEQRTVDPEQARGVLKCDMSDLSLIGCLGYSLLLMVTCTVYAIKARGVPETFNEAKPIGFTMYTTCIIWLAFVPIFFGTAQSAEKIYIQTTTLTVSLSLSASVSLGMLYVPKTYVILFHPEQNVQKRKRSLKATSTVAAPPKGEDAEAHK

A word on the IC50: it is the concentration needed to halve the response being measured. Consider `N[C@]1(C(=O)O)[C@@H]2[C@@H](C(=O)O)[C@@H]2[C@H](Sc2nccs2)[C@H]1OCc1ccc(Cl)c(Cl)c1` [Example 3, (1R,2R,3S,4S,5R,6R)-2-Amino-3-[(3,4-dichlorobenzyl)oxy]-4-(1,3-thiazol-2-ylsulfanyl)bicyclo[3.1.0]hexane-2,6-dicarboxylic acid], for which the concentration for half-maximal inhibition (IC50) at human mGlu2 receptors is 25.4 ± 4.8 nM; at human mGlu6 receptor, 2480 ± 295 nM; at human mGlu3 receptors, 10.8 nM. The same compound yielded an ED60 in the assay on male NIH-Swiss mice (ip) of 8.2 mg/kg. Further, the “Maximal Decrease (1 − compound/control) * 100%” value with male NIH-Swiss mice (i.p.) is given as 47%.
In the same order, the values of `COC(=O)N[C@H]1[C@H]2[C@H](C(=O)O)[C@H]2[C@](N)(C(=O)O)[C@@H]1OCc1ccc(Cl)c(Cl)c1` [Example 5, (1S,2R,3R,4S,5R,6S)-2-Amino-3-[(3,4-dichlorobenzyl)oxy]-4-[(methoxycarbonyl)amino]bicyclo[3.1.0]hexane-2,6-dicarboxylic acid] are 16.8 ± 1.6 nM, 1580 ± 141 nM, 9.5 ± 4.6 nM, 7.45 mg/kg and 56%.
In the same order, the values of `Cl.Cn1ncnc1S[C@H]1[C@H]2[C@H](C(=O)O)[C@H]2[C@](N)(C(=O)O)[C@@H]1OCc1ccc(Cl)c(Cl)c1` [Example 6, (1R,2R,3S,4S,5R,6R)-2-amino-3-[(3,4-dichlorobenzyl)oxy]-4-[(1-methyl-1H-1,2,4-triazol-5-yl)sulfanyl]bicyclo[3.1.0]hexane-2,6-dicarboxylic acid hydrochloride] are 18.6 ± 3.9 nM, 1360 ± 433 nM, 13.9 ± 2.4 nM, 7.3 mg/kg and 47%.
Consider `Cl.N[C@]1(C(=O)O)[C@@H]2[C@@H](C(=O)O)[C@@H]2[C@H](Sc2ncc[nH]2)[C@H]1OCc1ccc(Cl)c(Cl)c1` [Example 8, (1R,2R,3S,4S,5R,6R)-2-Amino-3-[(3,4-dichlorobenzyl)oxy]-4-(1H-imidazol-2-ylsulfanyl)bicyclo[3.1.0]hexane-2,6-dicarboxylic acid hydrochloride], for which the ED60 in the assay on male NIH-Swiss mice (ip) amounted to 9.1 mg/kg. The “Maximal Decrease (1 − compound/control) * 100%” value in the assay with male NIH-Swiss mice (i.p.) was found to be 41%. The IC50 on human mGlu6 receptor amounted to 2580 nM; on human mGlu3 receptors, 26 ± 0.5 nM.
For the compound `CCOC(=O)OCOC(=O)[C@H]1[C@@H]2[C@H](O)[C@@H](OCc3ccc(Cl)c(Cl)c3)[C@@](N)(C(=O)OCOC(=O)OCC)[C@H]12.Cl` [Example 11, Bis{[(ethoxycarbonyl)oxy]methyl} (1S,2R,3S,4S,5R,6R)-2-amino-3-[(3,4-dichlorobenzyl)oxy]-4-hydroxybicyclo[3.1.0]hexane-2,6-dicarboxylate hydrochloride], the ED60 in the assay with male NIH-Swiss mice (po) came to 51.5 mg/kg. Also, the “Maximal Decrease (1 − compound/control) * 100%” value in the assay on male NIH-Swiss mice (p.o.) stood at 32.9%.
In the same order, the values of `CC(C)C(=O)OCOC(=O)[C@H]1[C@@H]2[C@H](O)[C@@H](OCc3ccc(Cl)c(Cl)c3)[C@@](N)(C(=O)OCOC(=O)C(C)C)[C@H]12.Cl` [Example 12, Bis{[(2-methylpropanoyl)oxy]methyl} (1S,2R,3S,4S,5R,6R)-2-amino-3-[(3,4-dichlorobenzyl)oxy]-4-hydroxybicyclo[3.1.0]hexane-2,6-dicarboxylate hydrochloride] are over 28 mg/kg and 7%.
In the same order, the values of `Cl.N[C@]1(C(=O)OCOC(=O)C2CC2)[C@@H]2[C@@H](C(=O)OCOC(=O)C3CC3)[C@@H]2[C@H](O)[C@H]1OCc1ccc(Cl)c(Cl)c1` [Example 13, Bis{[(cyclopropylcarbonyl)oxy]methyl} (1S,2R,3S,4S,5R,6R)-2-amino-3-[(3,4-dichlorobenzyl)oxy]-4-hydroxybicyclo[3.1.0]hexane-2,6-dicarboxylate hydrochloride] are 11.3 mg/kg and 62.8%.
Regarding `CNCCC(Oc1ccc(C(F)(F)F)cc1)c1ccccc1` (stereo not drawn) [Fluoxetine, fluoxetine, reference compound], the “Maximal Decrease (1 − compound/control) * 100%” value with mice is 7.6%. Moreover, in the assay with mice (vehicle 174), the “Immobilization Time” value stood at 161 s.

The record behind these values is patent publication US9056844B2, “4-substituted-3-benzyloxy-bicyclo[3.1.0]hexane compounds as mGluR 2/3 antagonists” (Eli Lilly and Company, priority 2010, dated 2015).
